Time and Activity data for one molecule are collected here from ChEMBL document CHEMBL4152360 (Bioorg Med Chem, 2018).

Molecules are shown by their SMILES.

The target in assay [1] is Casein kinase II subunit alpha (Homo sapiens, UniProt P68400). The experiment in a line: Displacement of ARC-1504/ARC-1513-5O from CK2alpha (unknown origin) (1 to 335 residues) assessed as photoluminescence lifetime using non-deoxygenated solution after 15 to 60 mins by luminescence assay.
The target in assay [2] is Homeodomain-interacting protein kinase 2 (Homo sapiens) (UniProt Q9H2X6). The experiment in a line: Inhibition of human HIPK2 assessed as enzyme residual activity at 100 nM by radiometric filter binding assay relative to control.
Assay [3] addresses Mitogen-activated protein kinase kinase kinase 7 (Homo sapiens) (UniProt O43318). The experiment in a line: Inhibition of human TAK1 assessed as enzyme residual activity at 100 nM by radiometric filter binding assay relative to control.
The target in assay [4] is SRSF protein kinase 1 (Homo sapiens) (UniProt Q96SB4). The experiment in a line: Inhibition of human SRPK1 assessed as enzyme residual activity at 100 nM by radiometric filter binding assay relative to control.
Assay [5] deals with Serine/threonine-protein kinase TBK1 (Homo sapiens) (UniProt Q9UHD2). Description: Inhibition of human TBK1 assessed as enzyme residual activity at 100 nM by radiometric filter binding assay relative to control.
Assay [6] deals with High affinity nerve growth factor receptor (Homo sapiens) (UniProt P04629). The experiment in a line: Inhibition of human TRKA assessed as enzyme residual activity at 100 nM by radiometric filter binding assay relative to control.
The species entered for a further assay is Homo sapiens. The experiment in a line: Inhibition of human PKA assessed as enzyme residual activity at 100 nM by radiometric filter binding assay relative to control.
Assay [7] deals with Protein kinase C alpha type (Homo sapiens) (UniProt P17252). The experiment in a line: Inhibition of human PKCalpha assessed as enzyme residual activity at 100 nM by radiometric filter binding assay relative to control.
The target of assay [8] is Rho-associated protein kinase 2 (Rattus norvegicus) (UniProt Q62868). The experiment in a line: Inhibition of rat ROCK2 assessed as enzyme residual activity at 100 nM by radiometric filter binding assay relative to control.
For assay [9], the target named is Tyrosine-protein kinase BTK (Homo sapiens) (UniProt Q06187). Description: Inhibition of human BTK assessed as enzyme residual activity at 100 nM by radiometric filter binding assay relative to control.
The target in assay [10] is MAP/microtubule affinity-regulating kinase 3 (Homo sapiens) (UniProt P27448). The experiment in a line: Inhibition of human MARK3 assessed as enzyme residual activity at 100 nM by radiometric filter binding assay relative to control.
The target of assay [11] is Serine/threonine-protein kinase 3 (Homo sapiens) (UniProt Q13188). Description: Inhibition of human MST2 assessed as enzyme residual activity at 100 nM by radiometric filter binding assay relative to control.
The target in assay [12] is Ribosomal protein S6 kinase alpha-1 (Homo sapiens) (UniProt Q15418). The experiment in a line: Inhibition of human RSK1 assessed as enzyme residual activity at 100 nM by radiometric filter binding assay relative to control.
Assay [13] deals with Serine/threonine-protein kinase Nek6 (Homo sapiens) (UniProt Q9HC98). Description: Inhibition of human NEK6 assessed as enzyme residual activity at 100 nM by radiometric filter binding assay relative to control.
Assay [14] has as its target Proto-oncogene tyrosine-protein kinase Src (Homo sapiens) (UniProt P12931). The experiment in a line: Inhibition of human SRC assessed as enzyme residual activity at 100 nM by radiometric filter binding assay relative to control.
Assay [15] concerns the target RAC-alpha serine/threonine-protein kinase (Homo sapiens) (UniProt P31749). The experiment in a line: Inhibition of human PKBa assessed as enzyme residual activity at 100 nM by radiometric filter binding assay relative to control.
For assay [16], the target named is Eukaryotic elongation factor 2 kinase (Homo sapiens) (UniProt O00418). Description: Inhibition of human EF2K assessed as enzyme residual activity at 100 nM by radiometric filter binding assay relative to control.
For assay [17], the target named is Casein kinase I isoform delta (Homo sapiens) (UniProt P48730). The experiment in a line: Inhibition of human CK1delta assessed as enzyme residual activity at 100 nM by radiometric filter binding assay relative to control.
The target in assay [18] is Ribosomal protein S6 kinase alpha-5 (Homo sapiens) (UniProt O75582). The experiment in a line: Inhibition of human MSK1 assessed as enzyme residual activity at 100 nM by radiometric filter binding assay relative to control.
For assay [19], the target named is Calcium/calmodulin-dependent protein kinase kinase 2 (Homo sapiens) (UniProt Q96RR4). The experiment in a line: Inhibition of human CaMKKbeta assessed as enzyme residual activity at 100 nM by radiometric filter binding assay relative to control.
The target of assay [20] is Tyrosine-protein kinase SYK (Homo sapiens) (UniProt P43405). Description: Inhibition of human SYK assessed as enzyme residual activity at 100 nM by radiometric filter binding assay relative to control.

Casein kinase II subunit alpha, sequence (P68400 whole entry, looked up, the tested form may be a part): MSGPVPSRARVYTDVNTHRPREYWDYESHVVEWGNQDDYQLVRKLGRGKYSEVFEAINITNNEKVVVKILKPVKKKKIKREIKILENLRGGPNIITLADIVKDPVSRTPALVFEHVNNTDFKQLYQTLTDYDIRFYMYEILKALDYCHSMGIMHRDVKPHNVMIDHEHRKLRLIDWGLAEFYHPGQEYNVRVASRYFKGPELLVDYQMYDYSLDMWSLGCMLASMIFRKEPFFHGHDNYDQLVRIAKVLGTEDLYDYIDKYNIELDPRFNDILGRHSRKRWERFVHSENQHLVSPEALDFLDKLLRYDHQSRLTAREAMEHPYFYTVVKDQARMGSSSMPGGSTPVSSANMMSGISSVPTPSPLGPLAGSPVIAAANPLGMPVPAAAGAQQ
Casein kinase I isoform delta (Homo sapiens), sequence (P48730 whole entry, looked up, canonical isoform): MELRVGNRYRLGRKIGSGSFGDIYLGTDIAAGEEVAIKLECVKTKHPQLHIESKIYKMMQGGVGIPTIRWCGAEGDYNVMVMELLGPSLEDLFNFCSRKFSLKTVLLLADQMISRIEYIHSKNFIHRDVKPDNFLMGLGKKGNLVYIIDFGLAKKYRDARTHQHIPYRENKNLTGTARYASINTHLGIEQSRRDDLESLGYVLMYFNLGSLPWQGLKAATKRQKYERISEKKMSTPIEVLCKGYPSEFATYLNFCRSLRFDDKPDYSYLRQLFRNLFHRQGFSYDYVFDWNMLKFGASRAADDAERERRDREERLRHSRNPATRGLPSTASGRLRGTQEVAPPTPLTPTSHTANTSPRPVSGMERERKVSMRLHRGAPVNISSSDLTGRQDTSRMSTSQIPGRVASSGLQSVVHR
Serine/threonine-protein kinase TBK1 (Homo sapiens), sequence (Q9UHD2 whole entry): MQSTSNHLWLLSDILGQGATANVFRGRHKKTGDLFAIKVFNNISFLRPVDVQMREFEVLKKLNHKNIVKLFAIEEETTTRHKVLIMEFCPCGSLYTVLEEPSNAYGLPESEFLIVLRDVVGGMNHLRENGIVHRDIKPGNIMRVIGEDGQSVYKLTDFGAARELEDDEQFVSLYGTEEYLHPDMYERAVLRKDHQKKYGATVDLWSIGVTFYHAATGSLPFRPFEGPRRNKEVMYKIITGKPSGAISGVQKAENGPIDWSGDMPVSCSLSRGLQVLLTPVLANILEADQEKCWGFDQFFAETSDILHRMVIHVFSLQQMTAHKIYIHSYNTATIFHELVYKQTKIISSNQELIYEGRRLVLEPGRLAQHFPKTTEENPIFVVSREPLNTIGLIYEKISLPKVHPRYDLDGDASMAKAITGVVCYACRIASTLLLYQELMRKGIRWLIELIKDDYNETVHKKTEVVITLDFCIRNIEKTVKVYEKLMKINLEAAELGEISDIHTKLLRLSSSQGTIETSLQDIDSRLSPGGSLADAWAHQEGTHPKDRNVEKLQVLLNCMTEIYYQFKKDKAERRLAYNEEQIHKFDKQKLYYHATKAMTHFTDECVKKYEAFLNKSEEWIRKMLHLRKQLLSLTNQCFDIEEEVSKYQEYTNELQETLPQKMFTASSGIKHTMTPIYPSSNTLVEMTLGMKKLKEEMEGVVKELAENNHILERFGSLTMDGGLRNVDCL
Serine/threonine-protein kinase Nek6 (Homo sapiens), sequence (Q9HC98 whole entry): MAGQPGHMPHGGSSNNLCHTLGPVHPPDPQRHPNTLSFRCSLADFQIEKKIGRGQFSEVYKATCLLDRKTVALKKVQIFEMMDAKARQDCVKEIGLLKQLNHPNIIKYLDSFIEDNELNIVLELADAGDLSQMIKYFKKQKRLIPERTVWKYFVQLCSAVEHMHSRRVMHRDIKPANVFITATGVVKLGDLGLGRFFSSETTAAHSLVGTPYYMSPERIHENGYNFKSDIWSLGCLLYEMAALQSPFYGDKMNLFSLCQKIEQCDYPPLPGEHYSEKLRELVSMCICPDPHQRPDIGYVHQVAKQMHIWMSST
Homeodomain-interacting protein kinase 2 (Homo sapiens), sequence (Q9H2X6 whole entry, looked up): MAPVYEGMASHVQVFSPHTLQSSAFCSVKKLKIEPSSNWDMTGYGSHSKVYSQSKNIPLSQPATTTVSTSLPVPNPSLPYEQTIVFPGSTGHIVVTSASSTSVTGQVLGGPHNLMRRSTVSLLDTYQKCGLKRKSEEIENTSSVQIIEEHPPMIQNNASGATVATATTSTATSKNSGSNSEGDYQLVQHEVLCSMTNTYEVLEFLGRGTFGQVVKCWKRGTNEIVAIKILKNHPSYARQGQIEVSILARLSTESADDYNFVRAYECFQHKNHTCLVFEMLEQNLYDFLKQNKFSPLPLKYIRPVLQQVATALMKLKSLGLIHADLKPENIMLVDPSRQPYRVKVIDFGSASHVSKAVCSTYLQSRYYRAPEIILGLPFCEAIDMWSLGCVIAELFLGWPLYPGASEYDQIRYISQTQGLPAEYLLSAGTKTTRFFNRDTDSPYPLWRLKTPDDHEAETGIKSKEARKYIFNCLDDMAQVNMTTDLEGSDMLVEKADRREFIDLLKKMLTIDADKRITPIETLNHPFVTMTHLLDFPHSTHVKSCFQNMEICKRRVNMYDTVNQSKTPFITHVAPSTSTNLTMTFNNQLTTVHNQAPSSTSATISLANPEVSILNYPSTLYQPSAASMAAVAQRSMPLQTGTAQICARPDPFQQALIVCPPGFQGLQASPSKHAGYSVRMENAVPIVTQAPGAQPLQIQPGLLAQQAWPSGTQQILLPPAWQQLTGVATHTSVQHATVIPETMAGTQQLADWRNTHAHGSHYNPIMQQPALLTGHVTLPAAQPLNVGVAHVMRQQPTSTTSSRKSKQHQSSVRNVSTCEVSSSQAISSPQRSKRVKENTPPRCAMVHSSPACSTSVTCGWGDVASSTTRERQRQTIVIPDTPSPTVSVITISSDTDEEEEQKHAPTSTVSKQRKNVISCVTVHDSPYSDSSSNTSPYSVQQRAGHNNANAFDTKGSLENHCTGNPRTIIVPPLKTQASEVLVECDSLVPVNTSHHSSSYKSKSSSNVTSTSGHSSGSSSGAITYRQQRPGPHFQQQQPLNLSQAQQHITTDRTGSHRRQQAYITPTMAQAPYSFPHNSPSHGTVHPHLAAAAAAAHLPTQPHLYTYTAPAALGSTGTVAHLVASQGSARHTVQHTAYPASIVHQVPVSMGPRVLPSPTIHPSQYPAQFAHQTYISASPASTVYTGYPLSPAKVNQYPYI
RAC-alpha serine/threonine-protein kinase (Homo sapiens), sequence (P31749 whole entry): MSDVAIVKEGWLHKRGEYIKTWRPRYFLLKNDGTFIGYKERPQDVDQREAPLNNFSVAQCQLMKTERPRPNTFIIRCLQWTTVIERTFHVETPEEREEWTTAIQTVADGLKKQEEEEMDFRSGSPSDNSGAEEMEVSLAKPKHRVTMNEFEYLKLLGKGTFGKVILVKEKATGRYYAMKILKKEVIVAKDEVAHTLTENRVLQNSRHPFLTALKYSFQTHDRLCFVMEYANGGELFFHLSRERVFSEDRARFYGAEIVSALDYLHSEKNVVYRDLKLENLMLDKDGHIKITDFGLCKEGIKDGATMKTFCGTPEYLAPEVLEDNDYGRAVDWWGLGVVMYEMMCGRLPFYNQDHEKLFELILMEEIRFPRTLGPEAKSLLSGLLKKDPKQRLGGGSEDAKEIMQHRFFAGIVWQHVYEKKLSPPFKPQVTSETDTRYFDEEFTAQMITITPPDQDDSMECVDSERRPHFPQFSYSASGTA
Proto-oncogene tyrosine-protein kinase Src (Homo sapiens), sequence (P12931 2-536 limits assumed): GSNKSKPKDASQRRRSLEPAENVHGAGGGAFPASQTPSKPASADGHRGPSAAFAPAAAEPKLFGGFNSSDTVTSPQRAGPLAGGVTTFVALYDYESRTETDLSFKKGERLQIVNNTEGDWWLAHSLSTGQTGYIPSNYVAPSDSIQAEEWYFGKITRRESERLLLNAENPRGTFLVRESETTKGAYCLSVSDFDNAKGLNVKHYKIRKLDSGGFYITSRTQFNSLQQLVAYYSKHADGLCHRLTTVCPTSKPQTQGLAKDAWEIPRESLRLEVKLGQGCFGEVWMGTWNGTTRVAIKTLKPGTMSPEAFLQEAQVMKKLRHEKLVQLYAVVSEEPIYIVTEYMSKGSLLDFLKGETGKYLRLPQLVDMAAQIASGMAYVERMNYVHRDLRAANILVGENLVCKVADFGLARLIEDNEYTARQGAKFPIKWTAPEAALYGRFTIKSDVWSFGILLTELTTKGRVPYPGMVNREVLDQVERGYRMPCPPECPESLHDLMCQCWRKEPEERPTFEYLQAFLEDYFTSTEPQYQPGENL

With `NCCCC[C@@H](NC(=O)[C@@H](CC(=O)O)NC(=O)[C@@H](CC(=O)O)NC(=O)[C@@H](CC(=O)O)NC(=O)[C@@H](CC(=O)O)NC(=O)[C@@H](CC(=O)O)NC(=O)[C@@H](CC(=O)O)NC(=O)CCCCCNC(=O)CCC(=O)Nc1ncc(-c2ccc(C(=O)O)cc2)s1)C(=O)O`, in assay [1], the Time was 82 microsec. For the same molecule, the Activity is 23% in assay [2]; 62% in assay [3]; 69% in assay [4]; 78% in assay [5]; 88% in [6]; 92% in the assay filed under Homo sapiens. Also, the Activity in assay [7] was 95%; in assay [8] it was 96.5%; in assay [9] it was 99%; in assay [10] it was 99%; in assay [11], 101%; in [12] it was 101%. Besides, the Activity in assay [13] worked out at 103%; in [14] it was 103%; in assay [15], 105%; in [16], 106%; in assay [17], 107%; in assay [18], 115%. Besides, the results for the Activity in [19] and in assay [20] were 120% and 122%, respectively.
